≈ marks a conversion by molar mass, not a printed value. Like-named read-outs stand apart in the source and are kept apart here.
How the values were obtained:
[1] = test system: escherichia coli (ES CO) 9637; assay: agar serial dilution MIC, ES CO 9637; assay type: cell-based; details: ES CO strain 9637
Source text: (§1) The compounds of this invention are antibacterials effective against gram-positive and gram-negative test organisms as well as penicillin resistant staphylococcus at an inhibitory concentration at or below 250 micrograms per milliliter using the well-known and scientifically accepted agar serial dilution technique. […] Thus, the compounds of this invention are useful in the fields of comparative pharmacology and microbiology and may be used in the treatment of bovine mastitis, as growth promotors in animals and for the treatment of infections amenable to treatment with penicillins and cephalosporins.
(§2) The following examples are presented for purposes of illustration and should not be construed as limitations upon the true scope of this invention.
(§3) Es co -- escherichia coli

[2] = test system: neisseria catarrhalis (NE CA) 8193; assay: agar serial dilution MIC, NE CA 8193; assay type: cell-based; details: NE CA strain 8193
Source text: as §1, §2
Ne ca -- neisseria catarrhalis

[3] = test system: staphylococcus aureus (ST AU) 6538P; assay: agar serial dilution MIC, ST AU 6538P; assay type: cell-based
Source text: as §1, §2
(§4) St au -- staphylococcus aureus

[4] = test system: staphylococcus aureus (ST AU) CHP; assay: agar serial dilution MIC, ST AU CHP; assay type: cell-based; details: ST AU strain CHP
Source text: as §1, §2, §4

[5] = test system: salmonella paratyphi (SA PA) 11737; assay: agar serial dilution MIC, SA PA 11737; assay type: cell-based; details: Salmonella enterica
Source text: as §1, §2
Sa pa -- salmonella paratyphi

[6] = test system: proteus vulgaris (PR VU) 6896; assay: agar serial dilution MIC, PR VU 6896; assay type: cell-based; details: PR VU strain 6896
Source text: as §1, §2
Pr vu -- proteus vulgaris

[7] = test system: bacillus subtilis (BA SU) 663; assay: agar serial dilution MIC, BA SU 663; assay type: cell-based; details: BA SU strain 663
Source text: as §1, §2
Ba su -- bacillus subtilis

[8] = test system: bordetella brochiseptica (BO BR) 4617; assay: agar serial dilution MIC, BO BR 4617; assay type: cell-based; details: BO BR strain 4617
Source text: as §1, §2
Bo br -- bordetella brochiseptica

[9] = test system: staphylococcus aureus (ST AU) 53-180; assay: agar serial dilution MIC, ST AU 53-180; assay type: cell-based
Source text: as §1, §2, §4

[10] = test system: klebsiella pneumoniae (KL PN) 10031; assay: agar serial dilution MIC, KL PN 10031; assay type: cell-based; details: KL PN strain 10031
Source text: as §1, §2
Kl pn -- klebsiella pneumoniae

[11] = test system: staphylococcus aureus (ST AU) Smith; assay: agar serial dilution MIC, ST AU Smith; assay type: cell-based
Source text: as §1, §2, §4

[12] = test system: escherichia coli (ES CO) 920; assay: in vivo curative dose in infected mice, ES CO 920; details: subcutaneous at zero time and 6 hours after i.p. infection, 14 days
Experimental: (§5) The in vivo activity of the antibacterial agents of this invention was established by subcutaneously administering a dose of the compound being tested at zero time and 6 hours after infection to a randomized group of mice which had been infected with a specific infective agent, such as Escherichia coli, etc., via intraperitoneal injection of 0.5 milliliters of the infective agent in 5 per cent gastric mucin. The mice were then observed for 14 days and any deaths were recorded daily. The curative dose (CD50) was then reported in terms of the milligrams per mouse needed for […] of the infective agent.
as §3

[13] = test system: escherichia intermedia (ES IN) 65-1; assay: agar serial dilution MIC, ES IN 65-1; assay type: cell-based; details: Citrobacter intermedius, ES IN strain 65-1
Source text: as §1, §2
Es in -- escherichia intermedia

EN AE 13048 = assay: agar serial dilution MIC, EN AE 13048; assay type: cell-based; details: EN AE strain 13048
Source text: as §1, §2

[14] = test system: shigella sonnei (SH SO) SH-1; assay: in vivo curative dose in infected mice, SH SO SH-1; details: subcutaneous at zero time and 6 hours after i.p. infection, 14 days, mg per mouse, average of several tests
Experimental: as §5

[15] = test system: salmonella typhosa (SA TY) SAD-12; assay: in vivo curative dose in infected mice, SA TY SAD-12; details: subcutaneous at zero time and 6 hours after i.p. infection, 14 days, mg per mouse, average of several tests
Experimental: as §5
Sa ty -- salmonella typhosa

[16] = test system: proteus mirablis (PR MI) PR-3; assay: in vivo curative dose in infected mice, PR MI PR-3; details: subcutaneous at zero time and 6 hours after i.p. infection, 14 days, mg per mouse, average of several tests
Experimental: as §5
Pr mi -- proteus mirablis

[17] = test system: staphylococcus aureus (ST AU) Smith; assay: in vivo curative dose in infected mice, ST AU Smith; details: subcutaneous at zero time and 6 hours after i.p. infection, 14 days, mg per mouse, average of several tests
Experimental: as §5, §4

[18] = agar serial dilution, ST AU strain 53-180, read-out: MIC
[19] = agar serial dilution, ST AU strain 6538P, read-out: MIC
[20] = agar serial dilution, ST AU strain Smith, read-out: MIC

`CC(=O)OCC1=C(C(=O)O)N2C(=O)C(NC(=O)CCNC(=S)SCC(=O)O)C2SC1` (stereo not drawn) [Example 2, 7-[3-(Dithiocarboxyamino)propionamido]cephalosporanic acid N-carboxymethyl ester] gave an MIC [1] of 15.6 µg/mL (≈ 32.7 µM), an MIC [2] of 125 µg/mL (≈ 262 µM) and an MIC [3] of 0.976 µg/mL (≈ 2.04 µM). For the same compound, the MIC [4] was 3.9 µg/mL (≈ 8.17 µM), the MIC [5] was 0.976 µg/mL (≈ 2.04 µM) and the MIC [6] was 1.95 µg/mL (≈ 4.08 µM). The MIC [7] was 0.488 µg/mL (≈ 1.02 µM), the MIC [8] was 7.81 µg/mL (≈ 16.4 µM) and the MIC [9, 18] was 3.9 µg/mL (≈ 8.17 µM). For the same compound, the MIC [10] was 31.3 µg/mL (≈ 65.5 µM) and the MIC [11] was 0.976 µg/mL (≈ 2.04 µM).

In the case of `CC(=O)OCC1=C(C(=O)O)N2C(=O)C(NC(=O)C(NC(=S)SCC(=O)O)c3ccccc3)C2SC1` (stereo not drawn) [Example 3, 7-[2-(Dithiocarboxyamino)phenylacetamido]cephalosporanic acid N-carboxymethyl ester], the MIC [1] is reported as 31.3 µg/mL (≈ 58 µM), the MIC [2] is reported as 250 µg/mL (≈ 463 µM) and the MIC [3, 19] is reported as 7.81 µg/mL (≈ 14.5 µM). For the same compound, the CD50 ([12]; ES CO-920) was 6.0 milligrams/mouse, the MIC [4] was 31.3 µg/mL (≈ 58 µM) and the MIC [5] was 15.6 µg/mL (≈ 28.9 µM). It also gave an MIC [6] of 7.81 µg/mL (≈ 14.5 µM), an MIC [7] of 3.9 µg/mL (≈ 7.23 µM) and an MIC [13] of 250 µg/mL (≈ 463 µM). The MIC [8] was 125 µg/mL (≈ 232 µM), the MIC [9] was 15.6 µg/mL (≈ 28.9 µM) and the MIC [10] was 31.3 µg/mL (≈ 58 µM). For the same compound, the MIC (EN AE 13048) was 250 µg/mL (≈ 463 µM) and the MIC [11, 20] was 7.81 µg/mL (≈ 14.5 µM).

With `CC(=O)OCC1=C(C(=O)O)N2C(=O)C(NC(=O)CNC(=S)SCC(=O)O)C2SC1` (stereo not drawn) [Example 1, 7-[2-(Dithiocarboxyamino)acetamido]cephalosporanic acid N-carboxymethyl ester] the MIC [1] was 62.5 µg/mL (≈ 135 µM), the MIC [2] was 250 µg/mL (≈ 539 µM) and the MIC [3, 19] was 0.976 µg/mL (≈ 2.11 µM). For the same compound, the “in vivo curative dose (CD50)” value ([12]; mg per mouse, average of several tests, ES CO 920) was 4.48 mg, the “in vivo curative dose (CD50)” value [14] was 2.66 mg and the MIC [4] was 3.9 µg/mL (≈ 8.41 µM). For the same compound, the “in vivo curative dose (CD50)” value [15] was 1.41 mg, the MIC [5] was 7.81 µg/mL (≈ 16.8 µM) and the MIC [6] was 15.6 µg/mL (≈ 33.7 µM). The MIC [7] was 0.244 µg/mL (≈ 0.526 µM), the “in vivo curative dose (CD50)” value [16] was 1.96 mg and the MIC [13] was 250 µg/mL (≈ 539 µM). It also gave an MIC [8] of 15.6 µg/mL (≈ 33.7 µM), an MIC [9, 18] of 3.9 µg/mL (≈ 8.41 µM) and an MIC [10] of 31.3 µg/mL (≈ 67.5 µM). The MIC [11, 20] was 0.976 µg/mL (≈ 2.11 µM) and the “in vivo curative dose (CD50)” value [17] was 4.37 mg.

— US3944580A, “7-[2-(Dithiocarboxylamino)alkanamido]-cephalosporanic acid derivatives” (American Home Products Corporation, priority 1974, dated 1976)
